Experimental data: publication PMC4795541, “A Rapid and Quantitative Flow Cytometry Method for the Analysis of Membrane Disruptive Antimicrobial Activity” (PLoS ONE, 2016)
In brackets after ≈: the same amount, converted by molar mass. Marks after values point to notes of the source that are not given here. Where a SMILES comes first, the peptide text is derived from it. Where no end group is shown, it is not given here. [ ]: non-standard residue; d: D form. Phe(ol) = N[C@H](CO)Cc1ccccc1; Aib = CC(C)(N)C(=O)O

Columns and labels:
E. aerogenes ATCC 13048 [1] = test: MDC, flow cytometry Syto9/PI membrane disruption assay; type: cell-based, Enterobacter aerogenes; settings: 90 min incubation, average of 3 assays ± SD
Text: (§1) The bacterial strains; Fusobacterium nucleatum ATCC 25586, Streptococcus mutans Ingbritt, Staphylococcus aureus (MSSA) ATCC 29213; Staphylococcus aureus (MRSA) ATCC 43300; Enterococcus faecalis ATCC 29212; Enterobacter aerogenes ATCC 13048; Pseudomonas aeruginosa strain PAO1-LAC, ATCC 47085; Klebsiella pneumoniae ATCC 13883; Acinetobacter baumannii strain 2208, ATCC 19606; Escherichia coli ATCC 25922 lyophilised or glycerol stocks were obtained from the culture collection of the Oral Health Cooperative Research Centre, The Melbourne Dental School, University of Melbourne, Australia. These strains were selected for this study as they are widely used in antimicrobial studies and are considered to be important pathogens and major targets for antibiotic resistant studies. […] After overnight incubation, 0.5–2.0 mL of the starter culture was used to inoculate the appropriate fresh broth (200 mL) and growth monitored at 650 nm using a spectrophotometer (model 275E; Perkin-Elmer, Sydney, Australia) with culture purity checked by microscopic examination and culture. Bacteria were harvested during late exponential growth phase and viability and bacteria/mL determined using a BacLight viability kit (Invitrogen, Sydney, Australia) and a Quanta SC-MPL flow cytometer (Beckman coulter Pty, Ltd, Sydney, Australia). […]

E. coli ATCC 25922 [2] = test: as above; type: cell-based, Escherichia coli; settings: 90 min incubation, average of 3 assays ± SD
Text: as §1

E. faecalis ATCC 29212 [3] = test: as above; type: cell-based, Enterococcus faecalis; settings: 90 min incubation, average of 3 assays ± SD
Text: as §1

E. aerogenes ATCC 13048 [4] = settings: E. aerogenes ATCC 13048; 90 min incubation; average of 3 assays ± SD
Method in brief: (§2)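 Peptides dissolved in DMSO and serially diluted 250–0.244 μM in medium. Inoculum 2.5 × 10^5 cells/well, late-exponential phase. LB aerobic; S. mutans in Todd Hewitt, anaerobic.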

[5] = test system: P. aeruginosa strain PAO1-LAC, ATCC 47085; settings: P. aeruginosa PAO1-LAC, ATCC 47085; 90 min incubation; average of 3 assays ± SD
Method in brief: as §2

[6] = test system: S. aureus (MSSA) ATCC 29213; settings: S. aureus (MSSA) ATCC 29213; 90 min incubation; average of 3 assays ± SD
Method in brief: as §2

E. coli ATCC 25922 [7] = settings: E. coli ATCC 25922; 90 min incubation; average of 3 assays ± SD
Method in brief: as §2

E. faecalis ATCC 29212 [8] = settings: E. faecalis ATCC 29212; 90 min incubation; average of 3 assays ± SD
Method in brief: as §2

[9] = test system: S. aureus (MRSA) ATCC 43300; settings: S. aureus (MRSA) ATCC 43300; 90 min incubation; average of 3 assays ± SD
Method in brief: as §2

K. pneumoniae ATCC 13883 [10] = settings: K. pneumoniae ATCC 13883; 90 min incubation; average of 3 assays ± SD
Method in brief: as §2

[11] = test system: A. baumannii strain 2208, ATCC 19606; settings: A. baumannii strain 2208, ATCC 19606; 90 min incubation; average of 3 assays ± SD
Method in brief: as §2

K. pneumoniae ATCC 13883 [12] = test: MDC, flow cytometry Syto9/PI membrane disruption assay; type: cell-based, Klebsiella pneumoniae; settings: 90 min incubation, average of 3 assays ± SD
Text: as §1

[13] = test system: P. aeruginosa strain PAO1-LAC, ATCC 47085; settings: P. aeruginosa PAO1-LAC, ATCC 47085; 90 min incubation; average of 3 assays ± SD; remark: listed apart in the source
Method in brief: (§3)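 Late-exponential bacteria (BacLight/flow cytometry counted) at 2.5 × 10^5 cells/well were incubated 90 min at 37°C with peptide dilution series (250–0.244 μM in media before bacteria were added). F. nucleatum was run anaerobically in BHI with 0.05% L-cysteine, and the other strains aerobically in LB. MIC was then read by CLSI broth microdilution.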

E. faecalis ATCC 29212 [14] = settings: E. faecalis ATCC 29212; 90 min incubation; average of 3 assays ± SD; remark: listed apart in the source
Method in brief: as §3

[15] = test system: P. aeruginosa strain PAO1-LAC, ATCC 47085; test: MDC, flow cytometry Syto9/PI membrane disruption assay; type: cell-based, Pseudomonas aeruginosa; settings: 90 min incubation, average of 3 assays ± SD
Text: as §1

[16] = test system: S. aureus (MSSA) ATCC 29213; test: as above; type: cell-based, Staphylococcus aureus; settings: 90 min incubation, average of 3 assays ± SD
Text: as §1

[17] = test system: A. baumannii strain 2208, ATCC 19606; test: as above; type: cell-based, Acinetobacter baumannii; settings: 90 min incubation, average of 3 assays ± SD
Text: as §1

Compound | MDC (E. aerogenes ATCC 13048 [1]) | MDC (E. coli ATCC 25922 [2]) | MDC (E. faecalis ATCC 29212 [3]) | MBC (E. aerogenes ATCC 13048 [4]) | MBC [5] | MBC [6] | MBC (E. coli ATCC 25922 [7]) | MBC (E. faecalis ATCC 29212 [8]) | MBC [9] | MBC (K. pneumoniae ATCC 13883 [10]) | MBC [11] | MDC (K. pneumoniae ATCC 13883 [12]) | MIC [13] | MIC (E. faecalis ATCC 29212 [14]) | MDC [15] | MDC [16] | MDC [17]
CC(=O)NC(C)(C)C(=O)N1CCC[C@H]1C(=O)NC(C)(C)C(=O)N[C@@H](C)C(=O)NC(C)(C)C(=O)N[C@@H](C)C(=O)N[C@@H](CCC(N)=O)C(=O)NC(C)(C)C(=O)N[C@H](C(=O)NC(C)(C)C(=O)NCC(=O)N[C@@H](CC(C)C)C(=O)NC(C)(C)C(=O)N1CCC[C@H]1C(=O)N[C@H](C(=O)NC(C)(C)C(=O)NC(C)(C)C(=O)N[C@@H](CCC(=O)O)C(=O)N[C@@H](CCC(N)=O)C(=O)N[C@H](CO)Cc1ccccc1)C(C)C)C(C)C [Alamethicin] (Ac-[Aib]P[Aib]A[Aib]AQ[Aib]V[Aib]GL[Aib]PV[Aib][Aib]EQ[Phe(ol)]; N-terminus assumed) | >250 µM | >250 µM | 48.4 ± 10.9 µM | >250 µM | >250 µM | 27.9 ± 6.9 µM (≈ 54.8 µg/mL) | >250 µM | 48.1 ± 5.4 µM (≈ 94.5 µg/mL) | 59.2 ± 1.7 µM (≈ 116 µg/mL) | >250 µM | >250 µM | >250 µM | >250 µM | 30.1±9.6^e μM | >250 µM | 30.3 ± 8.2 µM | >250 µM
GIGKFLHSAKKFGKAFVGEIMNS-NH2 [Magainin II] |  |  |  | >250 µM | 56.3 ± 4.2 µM | >250 µM | 48.1 ± 12.4 µM | >250 µM | >250 µM | 142.3 ± 19.5 µM | 20.0 ± 1.0 µM |  | 26.1±1.2^e μM | >250 µM |  |  | 
